Experimental data taken from ChEMBL document CHEMBL2073753, “Steroid and bile acid conjugates are substrates of human multidrug-resistance protein (MRP) 4 (ATP-binding cassette C4)” (Biochem J, 2003).

Key:
[1] = target: T1, ATP-binding cassette sub-family C member 4 (Homo sapiens, UniProt O15439); assay: TP_TRANSPORTER: inhibition of E217betaG uptake in membrane vesicles from MRP4-expressing HEK-293 cells; assay type: functional, cell membranes, HEK293, Membrane vesicle
T1 sequence (O15439 whole entry): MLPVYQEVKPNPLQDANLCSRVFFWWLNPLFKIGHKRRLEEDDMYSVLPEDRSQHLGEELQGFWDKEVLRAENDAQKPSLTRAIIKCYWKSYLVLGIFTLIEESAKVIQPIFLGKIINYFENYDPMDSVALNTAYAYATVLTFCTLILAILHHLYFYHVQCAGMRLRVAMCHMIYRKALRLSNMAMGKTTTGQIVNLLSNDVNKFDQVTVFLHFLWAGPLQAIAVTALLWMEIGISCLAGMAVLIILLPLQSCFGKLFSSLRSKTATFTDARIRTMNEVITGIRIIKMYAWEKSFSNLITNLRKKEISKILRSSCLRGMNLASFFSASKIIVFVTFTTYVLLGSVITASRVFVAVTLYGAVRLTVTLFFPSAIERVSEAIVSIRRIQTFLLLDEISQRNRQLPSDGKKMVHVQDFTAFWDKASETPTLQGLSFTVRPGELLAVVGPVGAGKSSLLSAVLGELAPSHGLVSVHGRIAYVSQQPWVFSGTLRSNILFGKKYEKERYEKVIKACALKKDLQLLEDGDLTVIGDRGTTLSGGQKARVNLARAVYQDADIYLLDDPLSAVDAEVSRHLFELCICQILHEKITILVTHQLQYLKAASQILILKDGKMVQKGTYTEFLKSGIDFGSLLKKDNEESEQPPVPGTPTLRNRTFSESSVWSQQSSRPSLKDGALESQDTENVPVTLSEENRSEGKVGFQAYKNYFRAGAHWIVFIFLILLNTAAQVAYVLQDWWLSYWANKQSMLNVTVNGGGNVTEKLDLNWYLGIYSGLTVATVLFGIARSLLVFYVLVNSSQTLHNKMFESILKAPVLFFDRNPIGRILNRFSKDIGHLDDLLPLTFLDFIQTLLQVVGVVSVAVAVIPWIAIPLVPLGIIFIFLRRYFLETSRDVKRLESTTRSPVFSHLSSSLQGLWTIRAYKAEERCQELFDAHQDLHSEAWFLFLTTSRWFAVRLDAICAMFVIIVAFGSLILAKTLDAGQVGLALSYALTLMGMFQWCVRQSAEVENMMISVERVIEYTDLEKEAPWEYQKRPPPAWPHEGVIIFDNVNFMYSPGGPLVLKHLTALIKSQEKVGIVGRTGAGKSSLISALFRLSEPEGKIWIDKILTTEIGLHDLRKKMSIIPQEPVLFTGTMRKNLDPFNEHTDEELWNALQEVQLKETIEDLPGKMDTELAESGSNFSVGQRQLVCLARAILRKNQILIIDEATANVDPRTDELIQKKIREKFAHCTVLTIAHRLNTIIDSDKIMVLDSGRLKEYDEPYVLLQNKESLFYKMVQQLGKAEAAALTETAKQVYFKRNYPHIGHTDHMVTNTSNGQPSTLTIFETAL

[2] = target: T1, ATP-binding cassette sub-family C member 4; assay: TP_TRANSPORTER: inhibition of DHEAS in membrane vesicles from MRP4-expressing Sf9 cells; assay type: functional, cell membranes, Membrane vesicle
[3] = target: T1, ATP-binding cassette sub-family C member 4; assay: TP_TRANSPORTER: inhibition of E217betaG uptake in membrane vesicles from MRP4-expressing Sf9 cells; assay type: functional, cell membranes, Membrane vesicle

Row | SMILES | IC50 [1] [µM] | IC50 [2] [µM] | IC50 [3] [µM]
1 | C[C@H](CCC(=O)NCC(=O)O)[C@H]1CC[C@H]2[C@@H]3CC[C@@H]4C[C@H](OS(=O)(=O)O)CC[C@]4(C)[C@H]3CC[C@]12C | 10 |  | 
2 | C[C@]12CC[C@@H]3c4ccc(O[C@@H]5O[C@H](C(=O)O)[C@@H](O)[C@H](O)[C@H]5O)cc4CC[C@H]3[C@@H]1CC[C@@H]2O |  | 80 | 120
3 | C[C@H](CCC(=O)NCCS(=O)(=O)O)C1CC[C@H]2[C@@H]3CC[C@@H]4C[C@H](OS(=O)(=O)O)CC[C@]4(C)[C@H]3CC[C@]12C (stereo partly drawn) | 10 |  | 
4 | C[C@]12CC[C@H](O[C@@H]3O[C@H](C(=O)O)[C@@H](O)[C@H](O)[C@H]3O)CC1=CC[C@@H]1[C@@H]2CC[C@]2(C)C(=O)CC[C@@H]12 |  | 80 | 80
5 | C[C@H](CCC(=O)O)[C@H]1CC[C@H]2[C@@H]3CC[C@@H]4C[C@H](OS(=O)(=O)O)CC[C@]4(C)[C@H]3CC[C@]12C | 10 |  | 
6 | C[C@]12CC[C@@H]3c4ccc(OS(=O)(=O)O)cc4CC[C@H]3[C@@H]1CC[C@H]2O |  | 70 | 50
7 | C[C@]12CC[C@@H]3c4ccc(O)cc4CC[C@H]3[C@@H]1CC[C@@H]2O[C@@H]1O[C@H](C(=O)O)[C@@H](O)[C@H](O)[C@H]1O [ESTRADIOL 17B GLUCURONIDE] |  | 30 | 
8 | C[C@]12CC[C@@H]3c4ccc(OS(=O)(=O)O)cc4CC[C@H]3[C@@H]1CC[C@@H]2OS(=O)(=O)O [ESTRADIOL DISULFATE] |  | 0.2 | 2
9 | C[C@]12CC[C@@H]3c4ccc(OS(=O)(=O)O)cc4CC[C@H]3[C@@H]1CCC2=O [ESTRONE SULFURIC ACID] |  | 95 | 45
10 | C[C@H](CCC(=O)NCC(=O)O)[C@H]1CC[C@H]2[C@@H]3[C@H](O)C[C@@H]4C[C@H](O)CC[C@]4(C)[C@H]3C[C@H](O)[C@]12C [GLYCOCHOLIC ACID] | 400 |  | 
11 | C[C@H](CCC(=O)NCCS(=O)(=O)O)[C@H]1CC[C@H]2[C@@H]3[C@H](O)C[C@@H]4C[C@H](O)CC[C@]4(C)[C@H]3CC[C@]12C [TAUROCHENODEOXYCHOLATE] | 55 |  | 
12 | C[C@H](CCC(=O)NCCS(=O)(=O)O)[C@H]1CC[C@H]2[C@@H]3CC[C@@H]4C[C@H](O)CC[C@]4(C)[C@H]3C[C@H](O)[C@]12C [TAURODEOXYCHOLIC ACID] | 60 |  | 
13 | C[C@H](CCC(=O)NCCS(=O)(=O)O)[C@H]1CC[C@H]2[C@@H]3CC[C@@H]4C[C@H](O)CC[C@]4(C)[C@H]3CC[C@]12C [TAUROLITHOCHOLIC ACID] | 20 |  | 
